# Legend:
# [1] = induction of angiogenesis in-vivo; conditions: for effectiveness, on their own, in inducing angiogenesis response: each on its own
# Text: (§1) Lysine induced repair process depends on the ability of the amino acid/derivative(s) to induce rapid and controlled cellular expansion, both in-vitro and in-vivo. The phenomenon is probably based on the ability of the molecule(s) to act as the cell surface concentrator(s) of circulating growth factor(s). The rapid angiogenic property of the molecule(s) is also entirely dependent on the same phenomenon, where angiogenic factors are concentrated, locally, on the endothelial cell surface receptors, mediated by the molecule(s) working, possibly, as molecular bridges.
# [2] = expanding cells in-vivo
# Text: The present invention is based on an improvement over the inventor's earlier discovery that lysine, without the presence of any other angiogenic factor(s)/angiogenic growth factor(s)/vasculogenic/granulation tissue inducing agent(s), is capable of inducing angiogenesis in ischaemic tissues. The inventor's initial inquiries were directed towards finding new chemical additives in a high-density-culture system, in-vitro, where the objective was to expand viable hybridoma cell mass to the maximum possible at the least possible time (lag phase minimization) and maintaining the viable cell mass in culture for the maximum possible time period, in both fed-batch as well as batch cultures. The final goal was to get highest possible yields of monoclonal antibody (Mab) in the said high-density culture. […] Because of its ability to expand cells in-vitro, the cationic amino acid was taken, along with its d-isomer and short oligomer (m.w. up to or around 500-2500) to in-vivo experimentation and clinical conditions, for controlled regeneration of cells (in clinical conditions), where in-situ regeneration of cells was centrally important along with angio-neogenesis/vasculogensis.
# [3] = tested on: cells in culture; assay: cellular expansion / rapid cellular growth in culture in-vitro; format: cell-based; conditions: FIG. 3
# Text: as §1
# [4] = tested on: squamous cell carcinomatous tumor; assay: histopathology (HPE) of neo-angiogenesis 96 hrs after Injection LMH in a patient; format: in vivo, human; conditions: LMH 4 g/day I.V. for 4 days, HPE after 96 hrs
# Text: (§2) Recurrences were confirmed with biopsy and HP examination. Subsequently, the patient was given 2 cycles of Palliative Chemotherapy, following Injection LMH (Lysine Monohydrochloride) for 4 days (4 g/day I.V. in divided doses), with Cisplatin and 5 FU.
# HPE was done 96 hrs after Injection LMH to confirm the neo-angiogenesis (FIGS. 4 & FIGS. 5 & FIGS. 6-9)(Also compare FIGS. 4 to 9 with FIGS. 10-11 for quantitative comparison of angiogenic response in LMH treated squamous cell carcinomatous tumor vs. control tumours).
# [5] = tested on: recurrence lymph node masses; assay: clinical response of recurrent lymph node masses in a patient followed by palliative chemotherapy; format: in vivo, human; conditions: one patient; LMH 4 g/day I.V. for 4 days, then 2 cycles of palliative chemotherapy with Cisplatin and 5 FU
# Text: […] They underwent Radical surgery in the form of total excision of primary tumors and bilateral Supra-omohyoid Neck dissection. Adjuvant External Beam Radiotherapy (EBRT) was then given 66 Gy/33 Fr 6½ weeks and the patient went into complete remission and was disease free for >9 months.
# Subsequently, the patient had multiple nodal recurrences presenting with palpable masses.
# as §2
# [6] = tested on: hybridoma cell mass; conditions: high-density hybridoma culture, fed-batch and batch; Datta, D et al. 1997; cited from earlier work
SMILES,"effectiveness, on their own, in inducing angiogenesis response [1]","effectiveness in inducing angiogenesis in-vivo, compared to l-lysine ([1]; in-vivo)","effectiveness in expanding cells in-vivo, compared to the l-variety [2]","cellular expansion in culture ([3]; about 10 mcg/ml of added load, in addition to the usual load of l-lysine in the media)","effectiveness in expanding cells / inducing rapid cellular growth in-vitro, compared to l-lysine ([3]; in-vitro)",angiogenic response in glandular structure (histopathology) ([4]; FIG. 4),"angiogenic response in tumor tissue (histopathology) ([4]; FIGS. 5-9, versus control FIGS. 10-11)",outcome of recurrence lymph node masses [5],expansion of biomass (cell population) compared to other physico-chemical means [6]
NCCCC[C@@H](N)C(=O)O [d-lysine],equally effective,equally effective,equally effective,mediated cellular expansion in culture,equally effective,–,–,–,–
"Cl.NCCCC[C@H](N)C(=O)O [LMH, Lysine Monohydrochloride]",–,–,–,–,–,extensive angiogenic response,huge angiogenic and massive blood channel formation,disappeared achieving a 2nd complete recovery,–
NCCCC[C@H](N)C(=O)O [l-lysine],equally effective,–,–,–,–,–,–,–,expand the biomass (cell population) at the least possible time

# — patent publication US20080267862A1, “METHOD OF TREATING CANCER” (priority 2007, published 2008)
